The target in test [1] is T1, human recombinant adrenergic α2B receptor (Homo sapiens, UniProt P18089).
T1 construct: expressed in transfected cells; host or cells: CHO-K1
T1 sequence (P18089 1-450): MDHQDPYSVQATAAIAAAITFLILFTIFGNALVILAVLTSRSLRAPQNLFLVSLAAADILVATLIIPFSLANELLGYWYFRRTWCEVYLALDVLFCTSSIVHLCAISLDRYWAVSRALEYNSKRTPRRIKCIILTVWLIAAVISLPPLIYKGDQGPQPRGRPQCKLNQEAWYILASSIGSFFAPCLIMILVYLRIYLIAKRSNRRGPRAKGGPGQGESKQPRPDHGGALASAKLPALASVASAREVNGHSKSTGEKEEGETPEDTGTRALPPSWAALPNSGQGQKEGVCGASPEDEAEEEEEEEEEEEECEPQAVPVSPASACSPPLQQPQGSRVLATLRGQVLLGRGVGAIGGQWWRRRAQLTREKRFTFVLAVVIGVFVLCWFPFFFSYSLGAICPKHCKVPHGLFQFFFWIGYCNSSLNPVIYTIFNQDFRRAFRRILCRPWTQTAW
The experiment in a line: Radioligand binding, adrenergic α2B ([3H]Rauwolscine). The gist of the method: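 Assay used CHO-K1-expressed human α2B receptor in Tris-HCl pH 7.4 buffer with MgCl2, EDTA and BSA; 60 min incubation at 25 °C.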

The target of test [2] is T2, human recombinant adrenergic α2A receptor (Homo sapiens, UniProt P08913).
T2 construct: expressed in transfected cells; host or cells: insect Sf9 cells
T2 sequence (P08913 1-465): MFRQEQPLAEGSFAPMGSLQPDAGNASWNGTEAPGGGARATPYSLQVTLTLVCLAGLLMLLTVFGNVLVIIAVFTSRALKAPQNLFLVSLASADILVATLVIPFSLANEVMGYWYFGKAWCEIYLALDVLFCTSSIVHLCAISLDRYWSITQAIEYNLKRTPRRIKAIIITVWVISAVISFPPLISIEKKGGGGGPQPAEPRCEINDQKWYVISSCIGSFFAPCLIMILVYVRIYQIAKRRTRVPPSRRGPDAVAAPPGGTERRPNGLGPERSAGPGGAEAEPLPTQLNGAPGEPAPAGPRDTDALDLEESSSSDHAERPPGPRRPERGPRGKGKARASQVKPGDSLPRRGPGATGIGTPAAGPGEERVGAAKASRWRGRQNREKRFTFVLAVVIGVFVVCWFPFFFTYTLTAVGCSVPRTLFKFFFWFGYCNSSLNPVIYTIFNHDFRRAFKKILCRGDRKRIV
Put plainly: Radioligand binding, adrenergic α2A ([3H]MK-912). The method, boiled down:
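Displacement of 1 nM [3H]MK-912 from receptor produced in insect Sf9 cells was measured after 60 min at 25 °C. Readout: percent inhibition of specific binding.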

The target in test [3] is T3, rat adrenergic α1B receptor (Rattus norvegicus, UniProt P15823).
T3 construct: rat adrenergic α1B receptor obtained from Wistar Rat liver; from tissue; host or cells: Wistar rat liver
T3 sequence (P15823 1-515): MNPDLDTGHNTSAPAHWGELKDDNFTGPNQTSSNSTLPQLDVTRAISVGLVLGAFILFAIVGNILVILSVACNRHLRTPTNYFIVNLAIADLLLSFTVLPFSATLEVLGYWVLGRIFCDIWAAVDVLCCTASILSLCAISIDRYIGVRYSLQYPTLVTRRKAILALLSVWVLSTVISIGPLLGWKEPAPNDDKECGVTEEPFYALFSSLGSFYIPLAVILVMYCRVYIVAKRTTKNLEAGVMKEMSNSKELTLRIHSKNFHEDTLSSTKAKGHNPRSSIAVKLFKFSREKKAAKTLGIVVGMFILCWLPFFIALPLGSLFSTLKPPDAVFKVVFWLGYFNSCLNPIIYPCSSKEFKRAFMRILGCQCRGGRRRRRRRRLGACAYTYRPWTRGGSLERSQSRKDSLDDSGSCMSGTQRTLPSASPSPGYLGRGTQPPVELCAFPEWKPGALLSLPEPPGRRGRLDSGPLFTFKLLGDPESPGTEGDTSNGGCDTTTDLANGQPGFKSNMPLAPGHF
The experiment in a line: Radioligand binding, adrenergic α1B ([3H]Prazosin). The note with it: for inhibition at 0.03 µM: read-out: Percentage inhibition of ligand binding, Adrenergic α1B (0.03 μM), compound at 0.03 μM. The method, boiled down: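 Specific binding, taken as total minus that remaining with 10 μM phentolamine, is measured after filtration and counting. Rat liver receptor preparation and 0.25 nM [3H]prazosin are incubated with compound in 50 mM Tris-HCl (pH 7.4, 0.5 mM EDTA) at 25° C for 60 min. Activity is reported as percent inhibition.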

Test [4] has as its target T4, human recombinant adrenergic α1D receptor (Homo sapiens, UniProt P25100).
T4 construct: expressed in transfected cells; host or cells: HEK-293
T4 sequence (P25100 1-572): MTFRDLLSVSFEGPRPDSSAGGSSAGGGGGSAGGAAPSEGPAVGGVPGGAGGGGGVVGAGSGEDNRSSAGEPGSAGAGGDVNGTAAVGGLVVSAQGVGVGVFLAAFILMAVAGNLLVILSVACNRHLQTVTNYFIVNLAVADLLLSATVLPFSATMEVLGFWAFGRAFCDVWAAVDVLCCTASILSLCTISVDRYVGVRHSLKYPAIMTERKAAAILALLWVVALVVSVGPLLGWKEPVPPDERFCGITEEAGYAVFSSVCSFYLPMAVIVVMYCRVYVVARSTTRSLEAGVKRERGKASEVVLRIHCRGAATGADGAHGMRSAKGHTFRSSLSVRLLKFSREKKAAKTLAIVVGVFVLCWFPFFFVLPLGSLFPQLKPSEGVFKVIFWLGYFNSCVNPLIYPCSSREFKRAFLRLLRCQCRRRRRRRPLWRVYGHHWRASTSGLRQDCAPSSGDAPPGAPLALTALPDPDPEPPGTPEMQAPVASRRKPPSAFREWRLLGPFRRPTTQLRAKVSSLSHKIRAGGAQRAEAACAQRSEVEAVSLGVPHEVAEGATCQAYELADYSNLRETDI
Put plainly: Radioligand binding, adrenergic α1D ([3H]Prazosin). The note with it: for inhibition at 0.03 µM: read-out: Percentage inhibition of ligand binding, Adrenergic α1D (0.03 μM), compound at 0.03 μM. How it is done: Compounds were incubated with 0.6 nM [3H]Prazosin for 60 min at 25° C. Non-specific binding was estimated in the presence of 10 μM phentolamine. Receptor proteins were filtered and washed, the filters were then counted to determine [3H]Prazosin specifically bound. […] Biochemical assay results are presented as the percent inhibition of specific binding in Table B1.

The mark [5] stands for this setting: 0.1 μM compound, read-out: Percentage inhibition of ligand binding, Adrenergic α2B.
[6] abbreviates: 0.1 μM compound, read-out: Percentage inhibition of ligand binding, Adrenergic α2A.
The mark [7] stands for this setting: 0.1 μM compound, read-out: Percentage inhibition of ligand binding, Adrenergic α1B.
Setting [8] is: 0.1 μM compound, read-out: Percentage inhibition of ligand binding, Adrenergic α1D.
Where [9] appears, read: read-out: Percentage inhibition of ligand binding, Adrenergic α2B (0.1 μM), compound at 0.1 μM, [3H]Rauwolscine, repeat datapoints each shown.
The mark [10] stands for this setting: read-out: Percentage inhibition of ligand binding, Adrenergic α2A (0.1 μM), compound at 0.1 μM, [3H]MK-912, repeat datapoints each shown.
The mark [11] stands for this setting: read-out: Percentage inhibition of ligand binding, Adrenergic α1B (0.1 μM), compound at 0.1 μM, [3H]Prazosin, repeat datapoints each shown.
[12] abbreviates: read-out: Percentage inhibition of ligand binding, Adrenergic α1D (0.1 μM), compound at 0.1 μM, [3H]Prazosin, repeat datapoints each shown.
Where [13] appears, read: [3H]Prazosin, repeat datapoints each shown.

A word on the inhibition: it is the change of the read-out against control, counted positive when it falls. The term Ki denotes a dissociation constant, usually derived from enzyme kinetics or from competition with a known ligand.

Molecules are shown by their SMILES. Several values for one entry are separate records, joined by “and”; a condition that tells them apart may be missing. Identical values can stand only once. Like-named read-outs stand apart in the source and are kept apart here.

For `Cc1ccc2c(c1)c1c(n2CCc2cscc2C)CCN(C)C1` [compound 318, 2,8-dimethyl-5-[2-(4-methyl-thiophen-3-yl)-ethyl]-2,3,4,5-tetrahydro-1H-pyrido[4,3-b]indole], the inhibition at 0.1 µM in test [1] (setting [5]) was 103%; in test [2] (setting [6]) it was 95%; in test [3] (setting [7]) it was 94%; in test [4] (setting [8]), 60%.

As to `CC(=O)Nc1ccc(/C(C)=C\n2c3c(c4cc(C)ccc42)CN(C)CC3)cn1` [compound 111], the inhibition at 0.1 µM in test [1] (setting [9]) was 65%; in test [2] (setting [10]), 0%; in test [3] (setting [11]) it was 56%; in test [4] (setting [12]), 77%.

Turning to `Cc1ccc2c(c1)c1c(n2CCc2cncc(Cl)c2)CCN(C)CC1` [compound 92], the inhibition at 0.1 µM in test [1] (setting [9]) was determined as 77%; in test [2] (setting [10]), 30%; in test [3] (setting [11]), 77%; in test [4] (setting [12]) it was 46%.

On to `Cc1ccc2c(c1)c1c(n2CC(C)c2ccc(C)nc2)CCN(C)C1` (single isomer, unassigned) [289b], for which, in test [1] (0.1 μM compound), the “Percentage inhibition of ligand binding, Adrenergic α2B” value is listed as 54%. The “Percentage inhibition of ligand binding, Adrenergic α2A” value in test [2] (0.1 μM compound, 0.1 µM) is reported as 53%. The “Percentage inhibition of ligand binding, Adrenergic α1B” value in test [3] (0.1 μM compound, 0.1 µM) was determined as 12%. Further, in test [4] (0.1 μM compound, 0.1 µM), the “Percentage inhibition of ligand binding, Adrenergic α1D” value is on record as −2%.

As to `Cc1ccc2c(c1)c1c(n2CCc2ccc(C(F)(F)F)nc2)CCN(C)C1` [compound 86], the inhibition at 0.1 µM in test [1] (compound at 0.1 μM, [3H]Rauwolscine, repeat assays, each datapoint shown, read-out: Percentage inhibition of ligand binding, Adrenergic α2B) was determined as 77%; in test [2] (compound at 0.1 μM, [3H]MK-912, repeat assays, each datapoint shown, read-out: Percentage inhibition of ligand binding, Adrenergic α2A) it was 27%; in test [3] (compound at 0.1 μM, [3H]Prazosin, repeat assays, each datapoint shown, read-out: Percentage inhibition of ligand binding, Adrenergic α1B), 62%; in test [4] (compound at 0.1 μM, [3H]Prazosin, repeat assays, each datapoint shown, read-out: Percentage inhibition of ligand binding, Adrenergic α1D) it was 62%.

For `Cc1ccc2c(c1)c1c(n2CCc2ccc(C)nc2)C(c2ccccc2)N(C)CC1` (stereo not shown) [compound 314], the inhibition at 0.1 µM was 50% in test [1] (setting [5]), 91% in test [2] (setting [6]), 92% in test [3] (setting [7]) and 71% in test [4] (setting [8]).

For `COc1ccc(C(C)(O)Cn2c3c(c4cc(Cl)ccc42)C2CCC(C3)N2C)cc1F` (stereo not shown) [II-164], the inhibition at 0.1 µM in test [1] (setting [9]) amounted to 40%; in test [2] (setting [10]) it was 15%; in test [3] (setting [11]), 12%; in test [4] (setting [12]), 0%.

For the molecule `CN1CCc2c(c3cc(Cl)ccc3n2CCc2ccc(Cl)cc2)C1` [compound 213], in test [1] (compound at 0.1 μM, [3H]Rauwolscine, repeat datapoints each shown, 0.1 µM), the “Percentage inhibition of ligand binding, Adrenergic α2B (0.1 μM)” value was 68% and 97%. In test [1] (read-out: Ki α2B), the Ki worked out at 26.3 nM. Besides, the inhibition at 0.03 µM in test [1] (read-out: Percentage inhibition of ligand binding, Adrenergic α2B (0.03 μM), compound at 0.03 μM, [3H]Rauwolscine, repeat datapoints each shown) stood at 26%; in test [3] (setting [13]), 53%; in test [4] (setting [13]), 53%. Further, the inhibition at 0.1 µM in test [2] (setting [10]) stood at 98%.

`Cc1ccc2c(c1)c1c(n2CCc2ccc(F)cc2)CCN(C)C1` [compound 206]: the inhibition at 0.1 µM in test [1] (setting [9]) was 102%; in test [2] (setting [10]) it was 86%. In addition, in test [2], the Ki is 1.12 nM and 6.79 nM. Besides, the values for the inhibition at 0.03 µM in test [3] (setting [13]) and in test [4] (setting [13]) were 46% and 42%, respectively.

As to `CN1CCc2c(n(CC(O)c3ccccc3F)c3ccc(Cl)cc23)C1` (stereo not shown) [II-48], the inhibition at 0.1 µM in test [1] (setting [5]) came to 0%; in test [2] (setting [6]) it was 26%; in test [3] (setting [7]), 27%; in test [4] (setting [8]), 8%.

`C/C(=C\n1c2c(c3cc(Cl)ccc31)C1CCC(C2)N1C)c1cccnc1` (stereo not shown) [compound 97]: the inhibition at 0.1 µM is 88% in test [1] (setting [9]), -12% in test [2] (setting [10]), 3% in test [3] (setting [11]) and -7% in test [4] (setting [12]).

As to `Cc1ccc(CCn2c3c(c4ccc(C(F)(F)F)cc42)CN(C)CC3)cn1` [compound 119], the inhibition at 0.1 µM was 60% in test [1] (setting [9]), 14% in test [2] (setting [10]), 14% in test [3] (setting [11]) and -6% in test [4] (setting [12]).

For the molecule `C/C(=C/n1c2c(c3cc(C)ccc31)CN(C)CC2)c1sccc1C` [compound 287], the inhibition at 0.1 µM in test [1] (setting [5]) was found to be 98%; in test [2] (setting [6]) it was 99%; in test [3] (setting [7]), 81%; in test [4] (setting [8]) it was 69%.

For the molecule `C/C(=C\n1c2c(c3cc(C)ccc31)CCN(C)CC2)c1ccc(Cl)cc1Cl` [compound 227], the inhibition at 0.1 µM in test [1] (setting [9]) is 98%; in test [2] (setting [10]) it was 66%; in test [3] (setting [11]), 21%; in test [4] (setting [12]) it was -2%.

For `C/C(=C/n1c2c(c3cc(C)ccc31)CN(C)CC2)c1cccc(F)c1` [compound 236], the inhibition at 0.1 µM in test [1] (setting [9]) was 98%; in test [2] (setting [10]), 99%; in test [3] (setting [11]), 94%; in test [4] (setting [12]), 85%.

Consider `COCc1ccc(/C(C)=C/n2c3c(c4cc(C)ccc42)CN(C)CC3)cn1` [compound 126], for which the inhibition at 0.1 µM in test [1] (setting [9]) was 82%; in test [2] (setting [10]), 12%; in test [3] (setting [11]), 30%; in test [4] (setting [12]), 46%.

The values above are taken from US8791132B2, “Compounds and methods for treatment of hypertension” (Medivation Technologies, Inc., priority 2011, dated 2014).
